Assay results: patent publication US8367098B2, “Unique combinations of antimicrobial compositions” (The Population Council, Inc., priority 2002, dated 2013)

Columns and labels:
[1] = test system: HIV-1; settings: p24 ELISA and RT; cited from earlier work
[2] = in vivo, po; cited from earlier work
[3] = in vivo; cited from earlier work
[4] = Diffusion of NES through dialysis membrane (HPLC); assay type: physicochemical; settings: membrane cutoff 1000, HPLC
Source text: We examined diffusion of NES through a dialysis membrane with a molecular weight cutoff of 1000. The molecular weight of NES is 370. […] Results are illustrated in FIG. 10. […] However, the rate of diffusion observed through the dialysis membrane cannot be related to the rate of diffusion that would be observed in the human vagina as the rate of diffusion was dependant on the surface area of the dialysis bag. Conditions in the vagina would be different.
Diffusion of NES from CARRA/NES was investigated by two different methods, membrane dialysis and Ultrafree-15 centrifugation. In the membrane dialysis experiments, the membrane cutoff is 1,000, and diffusion of NES was measured by HPLC. […] In the Ultrafree-15 centrifugation experiments, a Millipore, Ultrafree-15 centrifugal filter and tube assembly was employed, which allows the passage of molecules of a MW<500 pass through; NES MW is 370.

| Compound | effect on HIV-1 production [1] | also measured |
| --- | --- | --- |
| CC(=O)[O-].CC(=O)[O-].[Cd+2] [cadmium acetate] | inhibited HIV-1 production | – |
| [Cl-].[Cl-].[Zn+2] [zinc chloride] | inhibited HIV-1 production | – |
| Carrageenan | – | absorption from the gastrointestinal tract [2]: virtually non-existent; toxicity by oral, dermal, and inhalation routes [3]: non-toxic |
| C=C1C[C@H]2[C@@H]3CCC4=CC(=O)CC[C@@H]4[C@H]3CC[C@]2(C)[C@@]1(OC(C)=O)C(C)=O [NES, 16-methylene-17α-acetoxy-19-norpregn-4-ene-3,20-dione] | – | diffusion of NES through dialysis membrane [4]: diffused from the dialysis bag at a constant rate |
| [Cl][Hg][Cl] [mercury chloride] | inhibited HIV-1 production | – |
